From US20200316159A1, “SUSTAINED RELEASE COMPOSITIONS OF KAPPA-OPIOID RECEPTOR AGONIST” (JT PHARMACEUTICALS, INC., priority 2016, published 2020)
Non-standard residues stand in square brackets, D forms with d. Residues, ends and D or L forms follow the SMILES beside them. *: point of attachment. NH(4-picolyl) = c1cc(CN*)ccn1; dNle = CCCC[C@@H](N)C(=O)O

Experiments:
[1] = tested on: peripheral pain (acetic acid-induced writhing); test: Acetic acid-induced writhing model (Example 1); assay type: in vivo, rat (male Sprague-Dawley); settings: oral gavage, screening dose 20 mg/kg, 20 min before i.p. 3% acetic acid; Student's t-test p<0.05
Description: Acetic Acid-Induced Writhing Model.
This protocol is a well-established model of peripheral pain. Following oral or i.v. administration of compound, rats are rested for 20 min before i.p. injection with 2 ml/kg of 3% acetic acid. Animals are then rested an additional 10 min before being placed in a 10×10 inch chamber. A video of the rats is then recorded for next 20 min. The video is subsequently blindly scored by an investigator who examines each rat every 20 sec for the entire 20 min (60 individual observations). At each observation rats are scored on whether they are writhing or not. Writhing is defined as a constriction of the abdominal area, often with extension of the hind legs. At the end of the experiment the percent of the time the animal was writhing was calculated. The dose-response curves and EC50 values were generated using GraphPad Prism®.
As an initial biological screen the potential for oral availability of the 18 peptides in our library were evaluated in a well-established model of peripheral pain, the acetic acid-induced writhing assay. Rats were administered the various compounds by oral gavage at a screening dose of 20 mg/kg 20 min before i.p. injection with 2 ml/kg of 3% acetic acid. 10 min later animals were assessed for writhing as indicated in the methods section. […] Thus, several of the Arg modifications can impart CR665 with the ability to cross the gut barrier. Compounds 3, 7, 9, 11 and 17 were selected for further analysis.

[2] = biological target: kappa opioid receptor (Homo sapiens, UniProt P41145); test: Opioid receptor activation assay, DiscoveRx PathHunter Beta-Arrestin, kappa; assay type: cell-based; settings: PathHunter Beta-Arrestin; for EC50: 3-6 repeats, read-out: 95% confidence levels of EC50, activation of kappa receptors
Description: Opioid Receptor Activation Assay.
PathHunter™ Beta-Arrestin GPCR Functional Profiling and Screening cell lines that express the individual opioid receptors were obtained from DiscoveRx (Fremont, Calif.). These cells express the kappa (or mu or delta) opioid receptor fused to a proprietary β-galactosidase enzyme fragment and the […]-arrestin gene fused to an enzyme acceptor (the remaining fragment of β-galactosidase). Upon activation of the receptor, β-arrestin is recruited to the GPCR and the β-galactosidase is activated through enzyme complementation. Cells were grown using standard cell culture techniques and then plated at 30,000 cells/well in 90 μl in a 96 well white, clear bottom plate and incubated overnight. Dilutions were prepared in dilution buffer (HBBS, 20 mMHepes, 0.1% BSA) and 10 μl added per well. Plates were then incubated for 90 min at 37° C. in a water-saturated atmosphere. Plates were then allowed to come to room temp and DiscoveRx's proprietary developing agent added as recommended by the manufacturer. This agent contains a detergent, 6-O-β-galactopyranosyl-luciferen and luciferase. Plates were then incubated for 1 hr at room temperature before being read on a luminometer. Antagonist studies were performed in an identical manner except after the overnight incubation 10 μl media was removed and replaced with drug or naloxone at the indicated concentration. […] To calculate % maximal luminescence, background was subtracted from the experimental values and this was divided by maximal luminescence and multiplied by 100.
To confirm this, and to determine their relative activities, we assessed their efficiency using PathHunter™ Beta-Arrestin GPCR Functional Profiling and Screening cell lines from DiscoveRx (Fremont, Calif.) as described in the Materials and Methods section.

[3] = tested on: abuse liability (lever pressing for intravenous drug delivery); test: Self-administration model; assay type: in vivo, rat; settings: cocaine 50 ug/50 ul bolus infusion, 7 days, after replacing JT09
Description: Self-Administration Model.
Addiction/dependence is a critical side effect of opioids and must be evaluated with any new member of this family. The most reliable test of abuse liability with the most translational relevance is a contingent drug self-administration model, in which rats are trained to press a lever for intravenous drug delivery. Sixteen standard self-administration chambers (30×20×20 cm, Med Associates) were housed inside sound-attenuating cubicles fitted with a fan for airflow and to mask noise. Each chamber contained two retractable levers, two stimulus lights, a speaker for tone delivery, and a house light to provide general illumination. In addition, each chamber was equipped with a balanced metal arm and spring leash attached to a swivel (Instech). Tygon® tubing extended through the leash and was connected to a 10 ml syringe mounted on an infusion pump located outside the sound-attenuating cubicle. Rats were anesthetized with i.p. injections of ketamine (66 mg/kg; Vedcolnc, St Joseph, Mo., USA), xylazine (1.3 mg/kg; Lloyd Laboratories, Shenandoah, Iowa, USA), and equithesin (0.5 ml/kg); sodium pentobarbital (4 mg/kg), chloral hydrate (17 mg/kg), and 21.3 mg/kg magnesium sulfate heptahydrate dissolved in 44% propylene glycol, 10% ethanol solution). Ketorolac (2.0 mg/kg, i.p. Sigma, St. Louis, Mo., USA) was given just prior to surgery as an analgesic. One end of a silastic catheter was inserted 33 mm into the external right jugular and secured with 4.0 silk sutures. The other end ran subcutaneously and exited from a small incision just below the scapula. This end is attached to an infusion harness (Instech Solomon, Plymouth Meeting, Pa., USA) that provides access to an external port for IV drug delivery. […]
During self-administration, rats received an IV infusion (0.1 ml) of 10 U/ml heparinized saline before each session. […] Cocaine was chosen for comparison purposes because it is readily self-administered.

[4] = tested on: central pain (acute thermal stimuli); test: Hot plate model (Example 2); assay type: in vivo, rat; settings: JT compounds 20 mg/kg oral; morphine 10 mg/kg i.p.
Description: The hotplate model evaluates central pain attenuation in a rodent after applying an acute thermal stimuli. Experimental rats were orally gavaged with lead compounds JT07 or JT09 (20 mg/kg) and rested for 20 min prior to being placed on the hotplate. Control rats received i.p. injections of morphine (10 mg/kg) and rested for 20 min prior to be being placed on the hotplate. Rats were then assessed over time on a hotplate analgesia meter (Columbus Instruments, Columbus, Ohio), essentially a flat surface maintained at 53.0+/−0.2° C. The time until the rat lifted, nibbled, or shook one of its hind paws was recorded, which is known as the response latency. Animals remained on the hotplate no longer that 30 sec to avoid tissue damage. Experiments were scored as the percent of maximal possible effect (% MPE) calculated using the following equation: % MPE=[(post-drug latency−pre-drug latency)/(cut-off pre-drug latency)]×100%. The dose response curves and EC50 values were generated using GraphPad Prism.
As an initial screen for analgesic activity, JT07 and JT09 were evaluated in the hotplate analgesic model using a standard oral dose of 20 mg/kg. Percent maximum possible effect was analyzed for each compound and compared to morphine (10 mg/kg, i.p.).

[5] = tested on: sedation (distance traveled); test: Locomotor open field test; settings: JT09 20 mg/kg p.o.; morphine 10 mg/kg i.p.
Description: Locomotor Open Field Test.
Sedation and a loss of muscle coordination are common CNS-mediated side effects of opioids. To assess the sedative effects of JT09, rats were given JT09 (20 mg/kg, p.o.) or morphine (10 mg/kg, i.p.) 20 min before placement in an automated (68 l×21 w×21 h cm) activity chambers for a 30 min test. Morphine was used as a comparison group due to its well-known sedative effects.

[6] = tested on: central pain (acute thermal stimuli); test: Hotplate model (Example 1); assay type: in vivo, rat (male Sprague-Dawley); settings: morphine at 5 mg/kg
Description: The hotplate model evaluates central pain attenuation in a rodent after applying an acute thermal stimuli. The rat is treated with compound and assessed over time on a hotplate analgesia meter (Columbus Instruments, Columbus, Ohio), essentially a flat surface maintained at 53.0+/−0.2° C. The time until the rat lifts, nibbles or shakes one of its hind paws is recorded, which is known as the response latency. Animals remain on the hotplate no longer than 30 sec to avoid tissue damage. Experiments are scored as the percent of maximal possible effect (% MPE) calculated using the following equation: % MPE=[(post-drug latency−pre-drug latency)/(cut-off pre-drug latency)]×100%. The dose response curves and EC50 values were generated using GraphPad Prism®.
As discussed, central availability of a kappa agonist can lead to undesirable side effects. To assess the peripheral to central selectivity of compound 9 an i.v. dose response of this drug was performed in both a model of peripheral pain (A. the writhing assay) and central pain (B. the hotplate assay). The ratio of EC50s for each of these assays can then be used to determine the peripheral selectivity of the drug.

Sequence of kappa opioid receptor (P41145 whole entry): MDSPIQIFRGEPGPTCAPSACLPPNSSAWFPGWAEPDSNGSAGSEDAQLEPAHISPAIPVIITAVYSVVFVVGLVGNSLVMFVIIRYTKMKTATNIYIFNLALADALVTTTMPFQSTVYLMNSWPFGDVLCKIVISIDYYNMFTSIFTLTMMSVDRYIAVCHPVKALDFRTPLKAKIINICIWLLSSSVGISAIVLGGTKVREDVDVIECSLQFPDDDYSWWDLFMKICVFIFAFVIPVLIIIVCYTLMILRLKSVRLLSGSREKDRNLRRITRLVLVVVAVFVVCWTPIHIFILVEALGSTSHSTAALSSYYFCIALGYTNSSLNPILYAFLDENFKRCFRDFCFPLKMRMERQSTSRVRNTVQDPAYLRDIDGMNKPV

| SMILES | EC50, activation of kappa opioid receptor [2] | EC50 [2] [nM] | other results |
| --- | --- | --- | --- |
| CCCC[C@@H](NC(=O)[C@@H](Cc1ccccc1)NC(=O)[C@H](N)Cc1ccccc1)C(=O)N[C@H](CCCNC(=N)N)C(=O)NCc1ccncc1 [CR665, D-Phe-D-Phe-D-Nle-D-Arg-NH-4-Picolyl, reference compound] (H-[dF][dF][dNle][dR]-{NH(4-picolyl)}) | low nM range | 9.07 to 13.1 | effect on writhing (outward physical signs of peripheral pain) versus saline control [1]: did not have a significant effect |
| CCCCNC(=N)NCCC[C@@H](NC(=O)[C@@H](CCCC)NC(=O)[C@@H](Cc1ccccc1)NC(=O)[C@H](N)Cc1ccccc1)C(=O)NCc1ccncc1 [Compound 3] | low nM range | 1.38 to 18.7 |  |
| CCCC[C@@H](NC(=O)[C@@H](Cc1ccccc1)NC(=O)[C@H](N)Cc1ccccc1)C(=O)N[C@H](CCCCNC1CCCCC1)C(=O)NCc1ccncc1 [Compound 7] | low nM range | 5.63 to 13.1 |  |
| CCCC[C@@H](NC(=O)[C@@H](Cc1ccccc1)NC(=O)[C@H](N)Cc1ccccc1)C(=O)N[C@H](CCCCNCc1ccccc1)C(=O)NCc1ccncc1 [Compound 11] | low nM range | 8.15 to 26.8 |  |
| CCCC[C@@H](NC(=O)[C@@H](Cc1ccccc1)NC(=O)[C@H](N)Cc1ccccc1)C(=O)N[C@H](CCC[N+](C)(C)C)C(=O)NCc1ccncc1 [Compound 17] | low nM range | 47.2 to 166 |  |
| COC(=O)[C@H]1[C@@H](OC(=O)c2ccccc2)C[C@@H]2CC[C@H]1N2C [cocaine, reference compound] |  |  | number of cocaine infusions (nose-poke) [3]: increased over the 7 days |
| CN1CC[C@]23c4c5ccc(O)c4O[C@H]2[C@@H](O)C=C[C@H]3[C@H]1C5 [morphine] |  |  | analgesic activity in hotplate model (% maximum possible effect) [4]: potent analgesic; sedation in locomotor test [5]: highly sedative; time of maximum response in hotplate assay [6]: 15 min |
